From article PMC11062894, “Protein-based bandpass filters for controlling cellular signaling with chemical inputs” (Nature Chemical Biology, 2023)

Test system: GEMS receptors with CBPvene (Bcl2–LD3 and Bcl2high variants), STAT3-driven SEAP in HEK293T cells
Assay: GEMS SEAP reporter assay, CBPvene (Bcl2high, LD3-v and Bcl2-v variants) with venetoclax
Type: cell-based
[1] = Supp Fig 10b, Bcl2-v4, venetoclax 316 nM
[2] = Supp Fig 10b, Bcl2-v4, venetoclax 1000 nM
[3] = Supp Fig 10b, Bcl2-v4, venetoclax 3160 nM
[4] = Supp Fig 10b, Bcl2-v4, venetoclax 10000 nM
[5] = Supp Fig 10b, Bcl2-v5, venetoclax 1 nM
[6] = Supp Fig 10b, Bcl2-v5, venetoclax 3.16 nM
[7] = Supp Fig 10b, Bcl2-v5, venetoclax 10 nM
[8] = Supp Fig 10b, Bcl2-v5, venetoclax 31.6 nM
[9] = Supp Fig 10b, Bcl2-v5, venetoclax 100 nM
[10] = Supp Fig 10b, Bcl2-v5, venetoclax 316 nM
[11] = Supp Fig 10b, Bcl2-v5, venetoclax 1000 nM
[12] = Supp Fig 10b, Bcl2-v5, venetoclax 3160 nM
[13] = Supp Fig 10b, Bcl2-v5, venetoclax 10000 nM
[14] = Supp Fig 10b, Bcl2-v6, venetoclax 1 nM
[15] = Supp Fig 10b, Bcl2-v6, venetoclax 3.16 nM
[16] = Supp Fig 10b, Bcl2-v6, venetoclax 10 nM
[17] = Supp Fig 10b, Bcl2-v6, venetoclax 31.6 nM
[18] = Supp Fig 10b, Bcl2-v6, venetoclax 100 nM
[19] = Supp Fig 10b, Bcl2-v6, venetoclax 316 nM
[20] = Supp Fig 10b, Bcl2-v6, venetoclax 1000 nM
[21] = Supp Fig 10b, Bcl2-v6, venetoclax 3160 nM
[22] = Supp Fig 10b, Bcl2-v6, venetoclax 10000 nM
[23] = Supp Fig 10b, Bcl2, venetoclax 1 nM
[24] = Supp Fig 10b, Bcl2, venetoclax 3.16 nM
[25] = Supp Fig 10b, Bcl2, venetoclax 10 nM
[26] = Supp Fig 10b, Bcl2, venetoclax 31.6 nM
[27] = Supp Fig 10b, Bcl2, venetoclax 100 nM
[28] = Supp Fig 10b, Bcl2, venetoclax 316 nM
[29] = Supp Fig 10b, Bcl2, venetoclax 1000 nM
[30] = Supp Fig 10b, Bcl2, venetoclax 3160 nM
[31] = Supp Fig 10b, Bcl2, venetoclax 10000 nM
[32] = Supp Fig 10c, Bcl2-v1, venetoclax 1 nM
[33] = Supp Fig 10c, Bcl2-v1, venetoclax 3.16 nM
[34] = Supp Fig 10c, Bcl2-v2, venetoclax 1 nM
[35] = Supp Fig 10c, Bcl2-v2, venetoclax 3.16 nM
[36] = Supp Fig 10c, Bcl2-v3, venetoclax 1 nM
[37] = Supp Fig 10c, Bcl2-v3, venetoclax 3.16 nM
[38] = Supp Fig 10c, Bcl2-v5, venetoclax 1 nM
[39] = Supp Fig 10c, Bcl2-v5, venetoclax 3.16 nM
[40] = Supp Fig 10c, Bcl2-v6, venetoclax 1 nM
[41] = Supp Fig 10c, Bcl2, venetoclax 1 nM
[42] = Supp Fig 10c, Bcl2, venetoclax 3.16 nM
[43] = SuppFigure 8a, LD3, venetoclax 1 nM
[44] = SuppFigure 8a, LD3, venetoclax 3.16 nM
[45] = SuppFigure 8a, LD3, venetoclax 100 nM
[46] = SuppFigure 8a, LD3, venetoclax 316 nM
[47] = SuppFigure 8a, LD3, venetoclax 1000 nM
[48] = SuppFigure 8a, LD3, venetoclax 3160 nM
[49] = SuppFigure 8a, LD3, venetoclax 10000 nM
[50] = SuppFigure 8a, LD3v1, venetoclax 1 nM
[51] = SuppFigure 8a, LD3v1, venetoclax 3.16 nM
[52] = SuppFigure 8a, LD3v1, venetoclax 100 nM
[53] = SuppFigure 8a, LD3v1, venetoclax 316 nM
[54] = SuppFigure 8a, LD3v1, venetoclax 1000 nM
[55] = SuppFigure 8a, LD3v1, venetoclax 3160 nM
[56] = SuppFigure 8a, LD3v1, venetoclax 10000 nM
[57] = SuppFigure 8a, LD3v2, venetoclax 1 nM
[58] = SuppFigure 8a, LD3v2, venetoclax 3.16 nM
[59] = SuppFigure 8a, LD3v2, venetoclax 100 nM
[60] = SuppFigure 8a, LD3v2, venetoclax 316 nM
[61] = SuppFigure 8a, LD3v2, venetoclax 1000 nM
[62] = SuppFigure 8a, LD3v2, venetoclax 3160 nM
[63] = SuppFigure 8a, LD3v2, venetoclax 10000 nM
[64] = SuppFigure 8a, LD3v3, venetoclax 1 nM
[65] = SuppFigure 8a, LD3v3, venetoclax 3.16 nM
[66] = SuppFigure 8a, LD3v3, venetoclax 100 nM
[67] = SuppFigure 8a, LD3v3, venetoclax 316 nM
[68] = SuppFigure 8a, LD3v3, venetoclax 1000 nM
[69] = SuppFigure 8a, LD3v3, venetoclax 3160 nM
[70] = SuppFigure 8a, LD3v3, venetoclax 10000 nM
[71] = SuppFigure 8b, LD3, venetoclax 1 nM
[72] = SuppFigure 8b, LD3, venetoclax 3.16 nM

CC1(C)CCC(CN2CCN(c3ccc(C(=O)NS(=O)(=O)c4ccc(NCC5CCOCC5)c([N+](=O)[O-])c4)c(Oc4cnc5[nH]ccc5c4)c3)CC2)=C(c2ccc(Cl)cc2)C1 [Venetoclax]
SEAP normalized (max=100) (Supp Fig 10b, Bcl2-v4, venetoclax 100 nM): 78.5961 | SEAP [1]: 14.4979 | SEAP normalized (max=100) [1]: 43.8128 | SEAP [2]: 9.936 | SEAP normalized (max=100) [2]: 30.0279 | SEAP [3]: 8.423 | SEAP normalized (max=100) [3]: 25.4557 | SEAP [4]: 7.624 | SEAP normalized (max=100) [4]: 23.0384 | SEAP [5]: 45.7217 | SEAP normalized (max=100) [5]: 92.4038 | SEAP [6]: 49.4803 | SEAP normalized (max=100) [6]: 100 | SEAP [7]: 40.0805 | SEAP normalized (max=100) [7]: 81.0029 | SEAP [8]: 46.2116 | SEAP normalized (max=100) [8]: 93.3938 | SEAP [9]: 42.8958 | SEAP normalized (max=100) [9]: 86.6926 | SEAP [10]: 30.6164 | SEAP normalized (max=100) [10]: 61.8759 | SEAP [11]: 14.0666 | SEAP normalized (max=100) [11]: 28.4288 | SEAP [12]: 10.2265 | SEAP normalized (max=100) [12]: 20.6679 | SEAP [13]: 6.4792 | SEAP normalized (max=100) [13]: 13.0945 | SEAP [14]: 50.15 | SEAP normalized (max=100) [14]: 13.184 | SEAP [15]: 55.0335 | SEAP normalized (max=100) [15]: 14.4678 | SEAP [16]: 53.9332 | SEAP normalized (max=100) [16]: 14.1785 | SEAP [17]: 141.748 | SEAP normalized (max=100) [17]: 37.2641 | SEAP [18]: 380.387 | SEAP normalized (max=100) [18]: 100 | SEAP [19]: 330.205 | SEAP normalized (max=100) [19]: 86.8077 | SEAP [20]: 170.706 | SEAP normalized (max=100) [20]: 44.877 | SEAP [21]: 26.4901 | SEAP normalized (max=100) [21]: 6.964 | SEAP [22]: 10.3289 | SEAP normalized (max=100) [22]: 2.715 | SEAP [23]: 34.2584 | SEAP normalized (max=100) [23]: 5.865 | SEAP [24]: 39.5038 | SEAP normalized (max=100) [24]: 6.763 | SEAP [25]: 88.7679 | SEAP normalized (max=100) [25]: 15.1973 | SEAP [26]: 235.479 | SEAP normalized (max=100) [26]: 40.3146 | SEAP [27]: 448.604 | SEAP normalized (max=100) [27]: 76.8023 | SEAP [28]: 584.102 | SEAP normalized (max=100) [28]: 100 | SEAP [29]: 347.384 | SEAP normalized (max=100) [29]: 59.4733 | SEAP [30]: 20.111 | SEAP normalized (max=100) [30]: 3.443 | SEAP [31]: 12.4887 | SEAP normalized (max=100) [31]: 2.138 | SEAP [32]: 26.1238 | SEAP normalized (max=100) [32]: 100 | SEAP [33]: 24.5196 | SEAP normalized (max=100) [33]: 93.8591 | SEAP [34]: 41.9684 | SEAP normalized (max=100) [34]: 37.8578 | SEAP [35]: 39.8265 | SEAP normalized (max=100) [35]: 35.9258 | SEAP [36]: 35.0656 | SEAP normalized (max=100) [36]: 94.2276 | SEAP [37]: 34.981 | SEAP normalized (max=100) [37]: 94.0003 | SEAP [38]: 25.6864 | SEAP normalized (max=100) [38]: 99.6735 | SEAP [39]: 25.7705 | SEAP normalized (max=100) [39]: 100 | SEAP [40]: 44.5051 | SEAP normalized (max=100) [40]: 24.1282 | SEAP [41]: 9.631 | SEAP normalized (max=100) [41]: 6.451 | SEAP [42]: 8.848 | SEAP normalized (max=100) [42]: 5.926 | Normalized data (SEAP) [43]: 18.1283 | Raw data (SEAP) [43]: 14.9284 | Normalized data (SEAP) [44]: 15.4665 | Raw data (SEAP) [44]: 12.7365 | Normalized data (SEAP) [45]: 62.0224 | Raw data (SEAP) [45]: 51.0746 | Normalized data (SEAP) [46]: 79.6476 | Raw data (SEAP) [46]: 65.5888 | Normalized data (SEAP) [47]: 100 | Raw data (SEAP) [47]: 82.3488 | Normalized data (SEAP) [48]: 64.1557 | Raw data (SEAP) [48]: 52.8314 | Normalized data (SEAP) [49]: 26.7094 | Raw data (SEAP) [49]: 21.9948 | Normalized data (SEAP) [50]: 73.3263 | Raw data (SEAP) [50]: 13.9463 | Normalized data (SEAP) [51]: 77.9742 | Raw data (SEAP) [51]: 14.8303 | Normalized data (SEAP) [52]: 93.9945 | Raw data (SEAP) [52]: 17.8773 | Normalized data (SEAP) [53]: 100 | Raw data (SEAP) [53]: 19.0195 | Normalized data (SEAP) [54]: 92.9583 | Raw data (SEAP) [54]: 17.6802 | Normalized data (SEAP) [55]: 77.7035 | Raw data (SEAP) [55]: 14.7788 | Normalized data (SEAP) [56]: 63.3664 | Raw data (SEAP) [56]: 12.052 | Normalized data (SEAP) [57]: 16.5083 | Raw data (SEAP) [57]: 13.4033 | Normalized data (SEAP) [58]: 16.1655 | Raw data (SEAP) [58]: 13.125 | Normalized data (SEAP) [59]: 55.5208 | Raw data (SEAP) [59]: 45.078 | Normalized data (SEAP) [60]: 68.4407 | Raw data (SEAP) [60]: 55.5679 | Normalized data (SEAP) [61]: 100 | Raw data (SEAP) [61]: 81.1913 | Normalized data (SEAP) [62]: 59.661 | Raw data (SEAP) [62]: 48.4395 | Normalized data (SEAP) [63]: 19.9233 | Raw data (SEAP) [63]: 16.176 | Normalized data (SEAP) [64]: 79.8276 | Raw data (SEAP) [64]: 14.5214 | Normalized data (SEAP) [65]: 77.8421 | Raw data (SEAP) [65]: 14.1602 | Normalized data (SEAP) [66]: 89.5467 | Raw data (SEAP) [66]: 16.2894 | Normalized data (SEAP) [67]: 90.6522 | Raw data (SEAP) [67]: 16.4905 | Normalized data (SEAP) [68]: 100 | Raw data (SEAP) [68]: 18.191 | Normalized data (SEAP) [69]: 92.956 | Raw data (SEAP) [69]: 16.9096 | Normalized data (SEAP) [70]: 54.34 | Raw data (SEAP) [70]: 9.885 | Normalized data (SEAP) [71]: 3.308 | Raw data (SEAP) [71]: 13.9036 | Normalized data (SEAP) [72]: 3.395 | Raw data (SEAP) [72]: 14.2688
